Reference: PMC5958115, “A novel small molecule chaperone of rod opsin and its potential therapy for retinal degeneration” (Nature Communications, 2018)
Like-named read-outs stand apart in the source and are kept apart here.

Assays:
bovine rod opsin = target: T1, bovine rod opsin (Bos taurus, UniProt P02699); test: Gt activation assay (GTPγS-induced fluorescence change); format: biochemical
T1 construct: Constitutive activity of bovine opsin in disc membranes; from tissue; host or cells: bovine retina ROS membranes (opsin membranes and purified Gt)
Method: Gt was extracted and purified from frozen bovine ROS membranes as described in Preparation of Opsin Membranes. The intrinsic increase in the fluorescence from Gtα was measured with a L55 luminescence spectrophotometer (PerkinElmer Life Sciences) using an excitation and emission wavelengths of 300 and 345 nm, respectively[39],[40]. […] DMSO-treated opsin membranes were used to obtain a baseline for the basal activity of opsin. The molar ratio of opsin to Gt was 1:10, with opsin at a concentration of 100 nM and Gt at 1000 nM. […] This step was followed by the addition of 300 μM GTPγS (Sigma-Aldrich) to determine the GTPγS-induced complex dissociation and corresponding fluorescence changes. Gt activation rates were determined and plotted for the first 100 s of the Gt activation assay[40],[67].

mouse P23H-opsin mutant = mouse P23H-opsin mutant (Mus musculus, UniProt P15409, P23H); test: β-Gal fragment complementation assay: rescue of P23H opsin transport from ER to plasma membrane, U2OS(PLC-EA/P23H-PK) cells; format: cell-based; details: for β-Gal fragment complementation assay Activity score (%) Max (fit) / Efficacy: 24 h, 5 µM 9-cis-retinal = 100%, from curve fitting; for dependence of activity on light: cells exposed to light vs dark; for Efficacy (%): normalized to 5 µM 9-cis-retinal
Text: U2OS(PLC-EA/P23H-PK) cells. A U2OS stable cell line was generated by DiscoveRx, Inc. (Fremont, CA, USA) for the β-Gal fragment complementation assay used in the small-molecule HTS for rescue of P23H-opsin transport. U2OS cells that continually express P23H-PK and PLC-EA fusion proteins were generated. Briefly, this small subunit of β-Gal (PK fragment) was fused to the C-terminal of the mouse P23H-opsin mutant, while the large EA fragment, a subunit of β-Gal, was fused with PLC, a plasma membrane-anchored peptide. Both constructs were subcloned by DicoveRx, Inc. and transferred into U2OS cells by viral infections. Positive clones were selected under treatment with hygromycin and geneticin.
Briefly, U2OS(PLC-EA /P23H-PK) cells were suspended in assay medium at 3 × 10^5 cells mL^−1. The cell suspension was dispensed into 384-well plates (Greiner Bio-one, Monroe, NC, USA) at 20 µL per well, with a Multidrop dispenser (Thermo Scientific, Waltham, MA, USA). Plates with cells then were centrifuged at 200×g for 15 s before incubation at 37 °C with 5% CO2. Plates were removed 24 h later for treatment with tested compounds. A total of 248 plates containing 79,080 compounds from three small-molecule libraries were paired with an equal number of assay plates with cultured cells. Owing to a limited capacity, these plates were assayed in seven batches. An average of 56.3 nL of 10 mM compound in DMSO was dispensed into each well from column 3 to 22 of paired assay plates using a 50 nL 384-pintool system, such that the final concentration of each compound was 22.52 µM on average. […] Each assay plate was shaken for 5 s before further incubation at 37 °C with 5% CO2. After 24 h, assay plates were removed, and each well was incubated with 25 µL of 1× Gal-Screen assay buffer (1:24 substrate-buffer ratio). Assay plates were incubated in the dark for 60–90 min, and luminescence was read from each assay plate with an Envision microplate reader (PerkinElmer) during a 0.1 s per well integration time. The mean and s.d. of readouts in column 2 of each plate were calculated as Mean0% and SD0%, whereas the average and s.d. of readouts in column 23 were calculated as Mean100% and SD100%. Eq. 1: Activity scores (%) = (RLUcp − Mean0%)/(Mean100% − Mean0%) × 100%, where RLUcp is the relative luminescence unit derived for cells treated with a compound. Eq. 2: Z′-factor = 1–3 × (SD0% + SD100%)/(Mean100% − Mean0%)[32]; Eq. 3: signal-to-background (S/B) ratio = Mean100%/Mean0%. Activities of all tested compounds were registered with their compound ID by GeneData Screener (Genedata, Basel, Switzerland) and Pipeline Pilot software (Accelrys, San Diego, CA, USA). Hits, cherry-picked from a separate stock dose-dependent activity test, were selected with an activity score cutoff at 20%. Activity of each hit was tested again with the β-Gal fragment complementation assay in a 10-dose series with each dose tested in triplicate. The 10 doses tested were 80, 40, 20, 10, 5, 2.5, 1.25, 0.625, 0.313, and 0.156 µM. Dose-dependent curves of each hit compound were fitted with GeneData and Origin software.
Detailed synthetic steps are described in Supplementary Note and Supplementary Fig. 9. […] YC-002-YC-021 were purchased from commercial vendors including Enamine LLC (Monmouth Jct., NJ, USA), Matrix Scientific (Columbia, SC, USA) and Tokyo Chemical Industry Co., Ltd. (Portland, OR, USA). […] Activities of YC compounds were tested with the β-Gal fragment complementation assay, as described in a prior section. All YC compounds were tested at 10 doses, each in triplicate: 80, 40, 20, 10, 5, 2.5, 1.25, 0.625, 0.313, and 0.156 µM.

bovine opsin = target: T2, bovine opsin (Bos taurus, UniProt P02699); test: Isorhodopsin pigment regeneration in ROS disc membranes (absorbance at 487 nm); format: biochemical; details: for competition with 9-cis-retinal in the chromophore-binding pocket: added simultaneously or sequentially with 9-cis-retinal
T2 construct: ROS membranes were isolated from bovine retinas under dim red light; from tissue; host or cells: bovine retina, rod outer segment (ROS) disc membranes, bleached with hydroxylamine
Method: ROS membranes containing opsin were suspended in buffer composed of 20 mM BTP, pH 7.5, and 100 mM NaCl at a final concentration of 2.5 µM. […] Membranes then were solubilized with 20 mM DDM for 10 min at RT and UV–visible spectra of these samples were measured. To follow the kinetics of isorhodopsin regeneration, opsin membranes were treated with 0, 20, or 60 µM YC-001 for 15 min at RT. […] UV–visible spectra of the samples were measured every 2 min until 2 h of reaction time at RT. Each condition was repeated three times. The time course of isorhodopsin regeneration was fitted by a second-order exponential decay and apparent half-lives were obtained at the time when reaction reached half of the end-point product.
Alternatively, opsin incubated with the above ligands was purified by 1D4-immunoaffinity chromatography. […] After washing, opsin samples were eluted by addition of 1D4 peptide ([…]) to the above buffer and their spectra were measured with a UV–visible spectrophotometer.
To test whether YC-001 stabilizes rod opsin, opsin samples (2.5 µM) were incubated with or without 10 µM YC-001 for 15 min, followed by solubilization in 20 mM DDM. […] UV–visible spectra of these samples then were measured.

[1] = 24 h preincubation, activity standardized to 5 µM 9-cis-retinal as 100%, Hill fit, read-out: β-Gal fragment complementation assay Activity score (%) EC50

T1 sequence (P02699 whole entry): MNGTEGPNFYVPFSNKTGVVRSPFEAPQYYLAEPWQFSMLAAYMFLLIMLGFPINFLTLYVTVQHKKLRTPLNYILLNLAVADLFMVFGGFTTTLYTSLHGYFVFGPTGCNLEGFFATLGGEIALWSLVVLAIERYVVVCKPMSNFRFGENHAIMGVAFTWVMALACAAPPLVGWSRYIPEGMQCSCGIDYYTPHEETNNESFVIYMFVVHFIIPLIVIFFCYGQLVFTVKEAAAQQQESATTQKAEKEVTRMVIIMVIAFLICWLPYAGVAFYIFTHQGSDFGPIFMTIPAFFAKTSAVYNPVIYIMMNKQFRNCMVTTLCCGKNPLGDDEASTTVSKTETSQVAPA
T2 sequence (P02699 whole entry): as above

Row | SMILES | initial rate of Gt activation, ln(kinitial) (bovine rod opsin; isorhodopsin regenerated by 40 µM 9-cis-retinal alone, upon illumination) | β-Gal fragment complementation assay Activity score (%) Max (fit) / Efficacy (mouse P23H-opsin mutant) | EC50 (mouse P23H-opsin mutant; [1]) | dependence of activity on light (mouse P23H-opsin mutant) | competition with 9-cis-retinal in the chromophore-binding pocket (bovine opsin) | activity in rescuing P23H-opsin transport (in words) (mouse P23H-opsin mutant) | half-life of rod opsin aging at RT (bovine opsin; 10 µM YC-001 vs opsin alone, 0-6 h) | total amount of regenerated isorhodopsin pigment at the end of the reaction (bovine opsin; increasing YC-001, sequential 9-cis-retinal) | reversibility of interaction with opsin (bovine opsin; opsin/isorhodopsin purification after treatment) | IC50 (bovine opsin; read-out: IC50, regenerated isorhodopsin) | initial rate of Gt activation, ln(kinitial) (bovine rod opsin; 40 µM compound, constitutive activity of opsin, DMSO control −5.3) | initial rate of Gt activation, ln(kinitial) (bovine rod opsin; co-treated with 40 µM 9-cis-retinal and 40 µM YC-001, upon illumination) | efficacy, % of the control activity score (mouse P23H-opsin mutant; HTS hits, variability between experiments) | effect of co-treatment with 9-cis-retinal (mouse P23H-opsin mutant; YC-001 dose series together with 5 µM 9-cis-retinal) | Efficacy (%) (mouse P23H-opsin mutant; modifications at C4) | EC50 (mouse P23H-opsin mutant; modifications linked to C3 of the furan-2(5H)-one ring, 10 doses 0.156-80 µM, read-out: Potency EC50) | Efficacy (%) (mouse P23H-opsin mutant; modifications of the furan-2(5H)-one ring) | Efficacy (%) (mouse P23H-opsin mutant; more than one site modified) | time to maximum activity (mouse P23H-opsin mutant; time course, Fig. 1f)
1 | CC1=C(/C=C/C(C)=C\C=C\C(C)=C\C=O)C(C)(C)CCC1 [9-cis-retinal, reference compound] | −4.6 | 159% | 2.7 µM | required that cells be incubated in the dark |  |  |  |  |  |  |  |  |  |  |  |  |  |  | 
2 | O=C(CCCCCN1C(=O)c2cccc3cccc(c23)C1=O)NO [Scriptaid, reference compound] |  | 98.2% | 3.09 µM |  | does not compete with 9-cis-retinal | strong activity in rescuing P23H opsin transport |  |  |  |  |  |  |  |  |  |  |  |  | 
3 | O=C1OCC(c2ccc(Cl)s2)=C1c1cccs1 [YC-001] |  | 310% | 8.7 µM | not affected | competing with 9-cis-retinal in a short timeframe |  | significantly longer half-life | did not affect | reversible | 11.4 µM | −6.1 | −4.9 | 150–310% | No additive effect | 248% | 8.39 µM | 248% | 248% | ≤ 15 h
